Article PMC11519904, “Comprehensive Cell Biological Investigation of Cytochalasin B Derivatives with Distinct Activities on the Actin Network” (Journal of Natural Products, 2024)
Converted amounts (≈) assume the structure as drawn.

How the values were obtained:
[1] = system: Mycobacterium smegmatis (ATCC 7000084); assay: Serial dilution assay (MIC), M. smegmatis; assay type: cell-based; conditions: Mycolicibacterium smegmatis, ATCC7000084; growth inhibition at 24 h; read-out: minimum inhibitory concentration (MIC) against M. smegmatis
Description: (§1) Serial dilutions of compounds were prepared as triplicates in sterile U-bottom-shaped 96-well plates (Corning, USA). Mueller-Hinton broth (MHB) medium was used for bacteria, and YMG medium was used for filamentous fungi and yeasts. The selected organisms represent a broad spectrum of pathogens of clinical interest, as well as sensitive indicator strains (Gram-positive bacteria: Bacillus subtilis (DSM 10), Staphylococcus aureus (DSM 346), Mycobacterium smegmatis (ATCC 7000084); Gram-negative bacteria: Acinetobacter baumannii (DSM 30008), Chromobacterium violaceum (DSM 30191), Escherichia coli (DSM 1116), Pseudomonas aeruginosa (PA 14); fungi and yeast: Schizosaccharomyces pombe (DSM 70572), Pichia anomala (DSM 6766), Mucor hiemalis (DSM 2656), Candida albicans (DSM 1665), Rhodotorula glutinis (DSM 10134)).
(§2) The compounds were dissolved in MeOH (1 mg/mL), added to the bacterial suspension, and diluted to the final concentrations. The plate was incubated at 37 °C under static conditions. Growth inhibition was assessed at 24 h. MeOH was used as negative control. […]

[2] = system: Schizosaccharomyces pombe (DSM 70572); assay: Serial dilution assay (MIC), S. pombe; assay type: cell-based; conditions: DSM70572, growth inhibition at 24 h, read-out: MIC against S. pombe
Description: as §1, §2

| Compound | MIC [1] | MIC [2] |
| --- | --- | --- |
| C=C1[C@@H](C)[C@H]2[C@H](Cc3ccccc3)NC(=O)[C@]23OC(=O)/C=C/[C@H](O)CCC[C@@H](C)C/C=C/[C@H]3[C@@H]1OC(C)=O [Compound 3, 7-O-acetyl cytochalasin B] | 66.6 µg/mL (≈ 128 µM) | – |
| C=C1[C@@H](C)[C@H]2[C@H](Cc3ccccc3)NC(=O)[C@]23OC(=O)/C=C/[C@H](OC(C)=O)CCC[C@@H](C)C/C=C/[C@H]3[C@@H]1O [Compound 6, 20-O-acetyl cytochalasin B] | – | 33.3 µg/mL (≈ 63.8 µM) |
